Measurements reported in patent EP0565593B1, “REDUCING PESTICIDAL INTERACTIONS IN CROPS” (priority 1990, dated 1992).
“And” between values parts separate entries of the source, which are not always exact repeats. Equal values may be shown once. Read-outs that look alike come from different tables or passages of the source.

Tests used:
Corn [1] = experiment: Greenhouse test Procedure VII: biocide and antidote in furrow, herbicide POE (Examples 39-42, 48-50, 56-58; Tables 38-41, 47-49, 55-57); type: in vivo; conditions: for % Inhibition Corn: C (COUNTER) + antidote in furrow
Excerpt: This procedure describes interaction among herbicide, biocide and antidote when the biocide and the antidote is applied to a soil furrow containing crop seed before emergence of the crop and the herbicide is applied after emergence of the crop and weeds. The soil and planting depth was described in Procedure IV. The containers for comparison, the biocide and antidote applications to soil furrows were described in Procedure VI. In this procedure, the seed beds of the first, second, third and fourth containers are covered by soil layers not treated with herbicide. The containers were then placed on a bench in a greenhouse and subirrigated as required for the duration of the test. The herbicide, dispersed or dissolved in water containing 0.25% v/v nonionic surfactant (X-77) was applied by a track sprayer (187 L/ha) to the emerged plants of the second, third and fourth containers about five days after planting. All treatments were run in duplicate. Plant response was observed according to Procedure IV. Variations in this procedure will be noted in the examples.
In this example, tests were conducted according to Procedure VII for the POE application of the herbicides following in-furrow application of COUNTER® 15G insecticide (BIOCIDE No. 1) and the antidote on the pre-planted test seeds. In this test, the herbicides were Nos. 1 (MON-12000), 10 (ALLY®) and #4 (HARMONY®) and the Antidote Nos. 1, 7, 12 and 33.
These in-furrow treatments comprised a 50-50 mix of blended granules of COUNTER with and without 5G granular antidotes at 7.4 + 7.4 mg/cm or 1.1 + 0.37 mg active ingredient (a.i.)/cm. The in-furrow initiation of the test was followed five (5) days later with POE application of the herbicides; observations were made eight (8) days later.
In another test, conducted simultaneously with that in Example 39, Herbicide Nos. 5 (chlorimuron ethyl, active ingredient in CLASSIC® herbicide), 7 (nicosulfuron, active ingredient in ACCENT® herbicide) and 15 (tribenuron methyl, active ingredient in EXPRESS® herbicide) were substituted as test herbicides.
In this example, using the same procedure as above, the following imidazolinone herbicides were used with the same insecticide/biocide and antidotes as above: Herb. No. 16 (imazaquin, a.i. in SCEPTER® herbicide; No. 19 (Code No. AC 222293, a.i. in ASSERT® herbicide); No. 6 (imazethapyr, a.i. in PURSUIT® herbicide and No. 18 (imazapyr, a.i. in ARSENAL® herbicide). Test results are shown in Table 40. Table 40
This example describes the testing of the above antidotes used in Examples 39-41 to safen negative synergy interactions between representative species of the class of herbicidal compounds identified as azolopyrimidine sulfonamides and COUNTER 15G. The same procedure used in the above examples was conducted in this test. In this test, the herbicides were formulated in 17% acetone and 83% water with 0.25% v/v X-77 surfactant.
In these tests (according to Procedure VII) the safeners in solution with acetone were applied in furrow to the soil, followed by COUNTER 15G granules at 227 g/305 m (8 oz./1000'). Applications were made in alternate rows in two separate 13.7 cm x 27.7 cm pans containing Dupo silt loam. Pans were seeded 1.3 cm deep, placed on benches in a greenhouse and subirrigated. BEACON was formulated in water with 0.25% v/v X-77 surfactant and applied by track sprayer at a rate of 187 L/Ha (20 gal/A). Weed species in this test were giant foxtail, shattercane and velvetleaf. The herbicide was applied five (5) days after PPI initiation and observation of test result (shown in Table 47) made eight (8) days later.
In Table 47 COUNTER 15G is abbreviated as "C" and the antidotes as "A" in the column headings which indicate the "C + A" ratios used in the tests. Control and COUNTER treatments are average of four (4) replications and COUNTER + Antidote treatments, average of 2 reps. […]

Corn [2] = test system: Corn
Shattercane (SHCA) = type: in vivo
Giant foxtail (GIFT) = experiment: whole plant or invertebrate; type: in vivo; conditions: in vivo
Velvetleaf (VELE) = type: in vivo, Abutilon theophrasti
Corn [3] = test system: Corn; remark: listed apart in the source
[4] = Antidote 8.96 + Biocide No. 1 8.96 Kg/Ha PPI, Herb. No. 8 0.07, 5 DAP, before herbicide application
[5] = Antidote 8.96 + Biocide No. 1 8.96 Kg/Ha PPI, Herb. No. 8 0.07 POE, 13 DAP
[6] = Antidote 8.96 + Biocide No. 1 8.96 Kg/Ha PPI, Herbicide No. 7 0.28 POE, 13 days after planting
[7] = Herb. […], 5 DAP, before herbicide application
[8] = Table 14: Herbicide No. 7 (ACCENT) 0.84 Kg/Ha POE + Biocide No. 2 8.96 Kg/Ha PPI + antidote 8.96 Kg/Ha PPI, 13 days after planting, 8 days after herbicide
[9] = […], 13 days after planting, 8 days after herbicide
[10] = […], observed 10 days after herbicide application

For `O=C(O)COC(c1ccccc1)c1ccccc1` [compound 79], the “% Inhibition Corn” value (Corn [1]; C:A Ratio 20, ACCENT 0.56 Kg/Ha POE) was 15%, the “% Inhibition Corn” value (Corn [1]; C:A Ratio 20, BEACON 0.28 Kg/Ha POE) was 0% and the “% Inhibition Corn” value (Corn [1]; C:A Ratio 40, ACCENT 0.56 Kg/Ha POE) was 20%. The “% Inhibition Corn” value (Corn [1]; C:A Ratio 40, BEACON 0.28 Kg/Ha POE) was 5%, the “% Inhibition Corn” value (Corn [1]; C:A Ratio 80, ACCENT 0.56 Kg/Ha POE) was 30% and the “% Inhibition Corn” value (Corn [1]; C:A Ratio 80, BEACON 0.28 Kg/Ha POE) was 15%. For the same compound, the “% Inhibition Corn” value (Corn [1]; C:A Ratio 160, ACCENT 0.56 Kg/Ha POE) was 45% and the “% Inhibition Corn” value (Corn [1]; C:A Ratio 160, BEACON 0.28 Kg/Ha POE) was 20%.
In the case of `CC(N=C1SCC(=C(Cl)Cl)S1)c1ccccc1` (centres unmarked) [compound 4], the “% Inhibition 5 DAP Corn” value (Corn [2]; [4]) is reported as 10%, the “% Inhibition 13 DAP Corn” value (Corn [2]; [5]) is reported as 60% and the “% Inhibition Corn” value (Corn [2]; [6]) is reported as 50%. The “% Inhibition 5 DAP Corn” value (Corn [2]; [7]) was 0%, the “% Inhibition Corn” value (Corn [2]; [8]) was 15% and the “% Inhibition Corn” value (Corn [2]; [9]) was 25%. The “% Inhibition Corn” value (Corn [2]; [10]) was 65%, the “% Inhibition 5 DAP Corn” value (Corn [2]; in vivo) was 15% and the “% Inhibition 13 DAP Corn” value (Corn [2]; in vivo) was 30%. For the same compound, the “% Inhibition 5 DAP SHCA” value (Shattercane (SHCA); [4]) was 10%, the “% Inhibition 13 DAP SHCA” value (Shattercane (SHCA); [5]) was 85% and the “% Inhibition SHCA” value (Shattercane (SHCA); [6]) was 75%. For the same compound, the “% Inhibition 5 DAP SHCA” value (Shattercane (SHCA); [7]) was 0%, the “% Inhibition 13 DAP SHCA” value (Shattercane (SHCA); Herb. […], 13 DAP, after herbicide application) was 90% and the “% Inhibition SHCA” value (Shattercane (SHCA); [8]) was 70%. The “% Inhibition SHCA” value (Shattercane (SHCA); [9]) was 90%, the “% Inhibition SHCA” value (Shattercane (SHCA); [10]) was 65% and the “% Inhibition 5 DAP SHCA” value (Shattercane (SHCA); in vivo) was 30%. For the same compound, the “% Inhibition 13 DAP SHCA” value (Shattercane (SHCA); in vivo) was 65%, the “% Inhibition SHCA” value (Shattercane (SHCA); in vivo) was 70% and 55% and 60% and 45% and the “% Inhibition GIFT” value (Giant foxtail (GIFT)) was 50% and 65% and 60% and 90% and 55%. The “% Inhibition 5 DAP VELE” value (Velvetleaf (VELE); [4]) was 0%, the “% Inhibition 13 DAP VELE” value (Velvetleaf (VELE); [5]) was 90% and the “% Inhibition VELE” value (Velvetleaf (VELE); [6]) was 70%. For the same compound, the “% Inhibition 5 DAP VELE” value (Velvetleaf (VELE); [7]) was 0%, the “% Inhibition VELE” value (Velvetleaf (VELE); [8]) was 65% and the “% Inhibition VELE” value (Velvetleaf (VELE); [9]) was 70%. The “% Inhibition VELE” value (Velvetleaf (VELE); [10]) was 80%, the “% Inhibition 5 DAP VELE” value (Velvetleaf (VELE); in vivo) was 0% and the “% Inhibition 13 DAP VELE” value (Velvetleaf (VELE); in vivo) was 90%.
In the case of `O=C(C(Cl)Cl)N1CCOC12CCCCC2` [Antidote No. 16, 1-Oxa-4-azaspiro<4.5>decane, 4-(dichloroacetyl)-], the “corn injury” value (Corn [1]; COUNTER 15G + BEACON/co-herbicide combinations, Example 56) is reported as “reduced corn injury”, the “safening, comparison” value (Corn [1]; COUNTER 15G/BEACON, Example 48) is reported as “not as active as the other safeners” and the “protecting corn, comparison” value (Corn [1]; COUNTER/BEACON (and ACCENT), Examples 49, 50) is reported as “weak in safening effect”.
With `CC1COc2ccccc2N1C(=O)C(Cl)Cl` (centres unmarked) [Antidote No. 28, 4-(Dichloroacetyl)-3,4-dihydro-3-methyl-2H-1,4-benzoxazine] the “safening, comparison” value (Corn [2]; Example 29, COUNTER with BEACON and ACCENT) was “comparable to MON-13900 (No. 1), but less effective than MON-7400”, the “safening” value (Corn [3]; DIAZINON + Herbicides 1, 21, 18, Example 53) was “Effective safening” and the “safening” value (Corn [3]; malathion + Herbicides 1, 21, 18, Example 54) was “moderate to high degrees of safening”.
